The supplement of paper PMC10307832

Experiments:
Assay in all cases: relative viability (nuclei count vs DMSO), 5 days (fraction); higher = more cells survive
[1] = tested on: BEN
In short: (§1)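 For relative viability, nuclei counts in treated wells were divided by those in vehicle wells. Lung cancer cell lines had been pin-tool dosed in 1536-well plates the day after seeding and cultured for 5 days, then fixed and stained in one step (final 0.05% Triton X-100, 1% formaldehyde, 1 ug/ml Hoechst) and imaged at 4×. Doses were one drug alone or a fixed anchor-drug dose plus five library-drug doses (not always all listed) in √10 steps, and values are duplicate-plate medians.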

[2] = tested on: ChaGo-K-1
In short: as §1

[3] = tested on: H3255
In short: as §1

[4] = tested on: HCC-15
In short: as §1

[5] = tested on: HCC-78
In short: as §1

[6] = tested on: LC-2-ad
In short: as §1

[7] = tested on: LCLC-97TM1
In short: as §1

[8] = tested on: LK-2
In short: as §1

[9] = tested on: LU99A
In short: as §1

[10] = tested on: LXF-289
In short: as §1

[11] = tested on: NCI-H1651
In short: as §1

[12] = tested on: NCI-H1666
In short: as §1

[13] = tested on: NCI-H1944
In short: as §1

[14] = tested on: NCI-H2087
In short: as §1

[15] = tested on: NCI-H2342
In short: as §1

[16] = tested on: NCI-H322M
In short: as §1

[17] = tested on: NCI-H358
In short: as §1

[18] = tested on: NCI-H596
In short: as §1

[19] = tested on: NCI-H650
In short: as §1

[20] = tested on: NCI-H661
In short: as §1

[21] = tested on: NCI-H838
In short: as §1

[22] = tested on: PC-3 [JPC-3]
In short: as §1

[23] = tested on: SK-MES-1
In short: as §1

[24] = tested on: UMC-11
In short: as §1

## C[C@@H]1CN(CC(=O)Nc2ccc3c(c2)Cc2cccc(-c4cc(=O)cc(N5CCOCC5)o4)c2S3)C[C@H](C)O1 + Cc1cc(Nc2cc(N3CCN(C)CC3)nc(Sc3ccc(NC(=O)C4CC4)cc3)n2)n[nH]1 [Tozasertib] (partner 0.1 µM)
[1]; first compound 0.04 µM
  relative viability: 0.449
[1]; first compound 0.1265 µM
  relative viability: 0.49
[1]; first compound 0.4 µM
  relative viability: 0.447
[1]; first compound 4 µM
  relative viability: 0.478
[2]; first compound 0.04 µM
  relative viability: 0.264
[2]; first compound 0.1265 µM
  relative viability: 0.209
[2]; first compound 0.4 µM
  relative viability: 0.226
[2]; first compound 4 µM
  relative viability: 0.173
[3]; first compound 0.04 µM
  relative viability: 0.694
[3]; first compound 0.1265 µM
  relative viability: 0.606
[3]; first compound 0.4 µM
  relative viability: 0.625
[3]; first compound 4 µM
  relative viability: 0.492
[4]; first compound 0.04 µM
  relative viability: 0.334
[4]; first compound 0.1265 µM
  relative viability: 0.372
[4]; first compound 0.4 µM
  relative viability: 0.385
[4]; first compound 4 µM
  relative viability: 0.151
[5]; first compound 0.04 µM
  relative viability: 0.397
[5]; first compound 0.1265 µM
  relative viability: 0.386
[5]; first compound 0.4 µM
  relative viability: 0.361
[5]; first compound 4 µM
  relative viability: 0.318
[6]; first compound 0.04 µM
  relative viability: 0.373
[6]; first compound 0.1265 µM
  relative viability: 0.454
[6]; first compound 0.4 µM
  relative viability: 0.467
[6]; first compound 4 µM
  relative viability: 0.44
[7]; first compound 0.04 µM
  relative viability: 0.27
[7]; first compound 0.1265 µM
  relative viability: 0.226
[7]; first compound 0.4 µM
  relative viability: 0.214
[7]; first compound 4 µM
  relative viability: 0.207
[8]; first compound 0.1265 µM
  relative viability: 0.174
[8]; first compound 0.4 µM
  relative viability: 0.185
[8]; first compound 4 µM
  relative viability: 0.17
[9]; first compound 0.04 µM
  relative viability: 0.243
[9]; first compound 0.1265 µM
  relative viability: 0.257
[9]; first compound 0.4 µM
  relative viability: 0.246
[9]; first compound 4 µM
  relative viability: 0.251
[10]; first compound 0.04 µM
  relative viability: 0.193
[10]; first compound 0.1265 µM
  relative viability: 0.212
[10]; first compound 0.4 µM
  relative viability: 0.246
[10]; first compound 4 µM
  relative viability: 0.191
[11]; first compound 0.04 µM
  relative viability: 0.683
[11]; first compound 0.1265 µM
  relative viability: 0.609
[11]; first compound 0.4 µM
  relative viability: 0.602
[11]; first compound 4 µM
  relative viability: 0.535
[12]; first compound 0.04 µM
  relative viability: 0.637
[12]; first compound 0.1265 µM
  relative viability: 0.689
[12]; first compound 0.4 µM
  relative viability: 0.622
[12]; first compound 4 µM
  relative viability: 0.43
[13]; first compound 0.04 µM
  relative viability: 0.273
[13]; first compound 0.1265 µM
  relative viability: 0.255
[13]; first compound 0.4 µM
  relative viability: 0.263
[13]; first compound 4 µM
  relative viability: 0.23
[14]; first compound 0.04 µM
  relative viability: 0.309
[14]; first compound 0.1265 µM
  relative viability: 0.249
[14]; first compound 0.4 µM
  relative viability: 0.333
[14]; first compound 4 µM
  relative viability: 0.228
[15]; first compound 0.04 µM
  relative viability: 0.477
[15]; first compound 0.1265 µM
  relative viability: 0.494
[15]; first compound 0.4 µM
  relative viability: 0.559
[15]; first compound 4 µM
  relative viability: 0.384
[16]; first compound 0.04 µM
  relative viability: 0.489
[16]; first compound 0.1265 µM
  relative viability: 0.486
[16]; first compound 0.4 µM
  relative viability: 0.449
[16]; first compound 4 µM
  relative viability: 0.432
[17]; first compound 0.04 µM
  relative viability: 0.13
[17]; first compound 0.1265 µM
  relative viability: 0.0927
[17]; first compound 0.4 µM
  relative viability: 0.0941
[17]; first compound 4 µM
  relative viability: 0.114
[18]; first compound 0.04 µM
  relative viability: 0.934
[18]; first compound 0.1265 µM
  relative viability: 1.13
[18]; first compound 0.4 µM
  relative viability: 0.759
[18]; first compound 4 µM
  relative viability: 0.762
[19]; first compound 0.04 µM
  relative viability: 0.655
[19]; first compound 0.1265 µM
  relative viability: 0.811
[19]; first compound 0.4 µM
  relative viability: 0.698
[19]; first compound 4 µM
  relative viability: 0.581
[20]; first compound 0.04 µM
  relative viability: 0.345
[20]; first compound 0.1265 µM
  relative viability: 0.366
[20]; first compound 0.4 µM
  relative viability: 0.355
[20]; first compound 4 µM
  relative viability: 0.366
[21]; first compound 0.04 µM
  relative viability: 0.255
[21]; first compound 0.1265 µM
  relative viability: 0.279
[21]; first compound 0.4 µM
  relative viability: 0.28
[21]; first compound 4 µM
  relative viability: 0.202
[22]; first compound 0.04 µM
  relative viability: 0.883
[22]; first compound 0.1265 µM
  relative viability: 0.862
[22]; first compound 0.4 µM
  relative viability: 0.871
[22]; first compound 4 µM
  relative viability: 0.74
[23]; first compound 0.04 µM
  relative viability: 1.09
[23]; first compound 0.1265 µM
  relative viability: 0.852
[23]; first compound 0.4 µM
  relative viability: 0.826
[23]; first compound 4 µM
  relative viability: 0.647
[24]; first compound 0.04 µM
  relative viability: 0.208
[24]; first compound 0.1265 µM
  relative viability: 0.198
[24]; first compound 0.4 µM
  relative viability: 0.19
[24]; first compound 4 µM
  relative viability: 0.199
